According to patent US12185723B2, “Herbicidally active 3-phenylisoxazoline-5-carboxamides of s-containing cyclopentenylcarboxylic esters” (Bayer Aktiengesellschaft, priority 2019, dated 2025):

Key:
Assay type in all cases: in vivo
Alopecurus myosuroides = test: Post-emergence herbicidal action against ALOMY; details: 20 g a.i./ha, visual rating about 3 weeks after treatment
Procedure: (§1) Post-Emergence Herbicidal Action Against Harmful Plants and Crop Plant Compatibility Seeds of monocotyledonous and dicotyledonous weeds and crop plants are placed in sandy loam in plastic or wood-fibre pots, covered with soil and cultivated in a greenhouse under controlled growth conditions. 2 to 3 weeks after sowing, the test plants are treated at the one-leaf stage. The compounds of the invention, formulated in the form of wettable powders (WP) or as emulsion concentrates (EC), are then sprayed onto the green parts of the plants as aqueous suspension or emulsion with addition of 0.5% additive at a water application rate of 600 l/ha (converted). After the test plants have been kept in the greenhouse under optimum growth conditions for about 3 weeks, the activity of the preparations is rated visually in comparison to untreated controls. For example, 100% activity=the plants have died, 0% activity=like control plants. [table]

Veronica persica = test: Post-emergence herbicidal action against VERPE; details: 20 g a.i./ha
Procedure: as §1

Setaria viridis = test: Post-emergence herbicidal action against SETVI; details: visual rating about 3 weeks after treatment
Procedure: as §1

Echinochloa crus-galli = test: Post-emergence herbicidal action against ECHCG; details: 20 g a.i./ha, visual rating about 3 weeks after treatment
Procedure: as §1

Amaranthus retroflexus = test: Post-emergence herbicidal action against AMARE; details: 20 g a.i./ha
Procedure: as §1

DIGSA = test: Post-emergence herbicidal action against DIGSA; details: 20 g a.i./ha, visual rating about 3 weeks after treatment
Procedure: as §1, with “plants.” for “plants. [table]”

Polygonum convolvulus = test: Post-emergence herbicidal action against POLCO; details: 20 g a.i./ha
Procedure: as §1

Pharbitis purpurea = test: Post-emergence herbicidal action against PHBPU; details: 20 g a.i./ha
Procedure: as §1

Lolium rigidum = test: Post-emergence herbicidal action against LOLRI; details: 20 g a.i./ha, visual rating about 3 weeks after treatment
Procedure: as §1

Avena fatua = test: Post-emergence herbicidal action against AVEFA; details: 20 g a.i./ha, visual rating about 3 weeks after treatment
Procedure: as §1

Abutilon theophrasti = test: Post-emergence herbicidal action against ABUTH; details: 20 g a.i./ha, visual rating about 3 weeks after treatment
Procedure: as §1

Row | SMILES | Herbicidal action against [%] ALOMY (Alopecurus myosuroides) | Herbicidal action against [%] VERPE (Veronica persica) | Herbicidal action against [%] SETVI (Setaria viridis; 20 g a.i./ha) | Herbicidal action against [%] ECHCG (Echinochloa crus-galli) | Herbicidal action against [%] AMARE (Amaranthus retroflexus) | Herbicidal action against [%] DIGSA (DIGSA) | Herbicidal action against [%] POLCO (Polygonum convolvulus) | Herbicidal action against [%] PHBPU (Pharbitis purpurea) | Herbicidal action against [%] LOLRI (Lolium rigidum) | Herbicidal action against [%] AVEFA (Avena fatua) | Herbicidal action against [%] ABUTH (Abutilon theophrasti) | Herbicidal action against [%] SETVI (Setaria viridis; 80 g a.i./ha)
1 | C[S+]([O-])CCOC(=O)C1C=CC(NC(=O)C2(C)CC(c3cccc(F)c3)=NO2)C1 (mixture of isomers) [Example I-61] | 80% | 80% | 80% | 80% | 80% | – | – | – | – | – | – | –
2 | CC1(C(=O)NC2C=CC(C(=O)OCCSC3CCCCC3)C2)CC(c2cc(F)cc(F)c2)=NO1 (stereo not drawn) [Example I-03] | 90% | – | 80% | 80% | – | 80% | 80% | 80% | – | – | – | –
3 | CC(C)C(=O)SCCOC(=O)C1C=CC(NC(=O)C2(C)CC(c3cc(F)cc(F)c3)=NO2)C1 (stereo not drawn) [Example I-05] | 100% | 80% | 80% | 80% | – | 80% | 80% | 80% | – | – | – | –
4 | CC1(C(=O)NC2C=CC(C(=O)OCCS(C)(=O)=O)C2)CC(c2cc(F)cc(F)c2)=NO1 (stereo not drawn) [Example I-14] | 90% | 90% | 90% | 80% | 90% | 90% | – | 80% | 90% | 80% | – | –
5 | CC(=O)CCSCCOC(=O)C1C=CC(NC(=O)C2(C)CC(c3cc(F)cc(F)c3)=NO2)C1 (stereo not drawn) [Example I-15] | 90% | 80% | – | 80% | – | 80% | 80% | – | 80% | – | – | –
6 | COC1(C(=O)NC2C=CC(C(=O)OCCSC(F)(F)F)C2)CC(c2cc(F)cc(F)c2)=NO1 (stereo not drawn) [Example I-21] | 90% | 90% | 80% | 90% | – | 80% | 80% | – | 100% | 80% | 80% | –
7 | C=CCSCCOC(=O)C1C=CC(NC(=O)C2(OC)CC(c3cc(F)cc(F)c3)=NO2)C1 (stereo not drawn) [Example I-26] | 90% | 80% | – | 80% | 80% | 90% | 80% | – | 90% | 90% | 80% | –
8 | CSCCOC(=O)C1C=CC(NC(=O)C2(C3CC3)CC(c3cc(F)cc(F)c3)=NO2)C1 (stereo not drawn) [Example I-27] | – | – | – | – | – | – | – | – | – | – | – | 90%
9 | C=CC1(C(=O)NC2C=CC(C(=O)OCCSC)C2)CC(c2cccc(F)c2)=NO1 (stereo not drawn) [Example I-35] | 90% | 80% | 90% | 90% | 80% | 90% | 90% | 80% | 90% | 90% | – | –
10 | CSCCOC(=O)C1C=CC(NC(=O)C2(C)CC(c3cc(C#N)cc(C#N)c3)=NO2)C1 (stereo not drawn) [Example I-52] | 90% | 80% | – | – | – | – | 80% | 80% | – | 80% | – | –
11 | C=CC1(C(=O)NC2C=CC(C(=O)OCCSC)C2)CC(c2cc(C)cc(F)c2)=NO1 (stereo not drawn) [Example I-56] | 80% | – | – | – | – | – | 80% | – | 80% | – | – | –
12 | CSCCOC(=O)C1C=CC(NC(=O)C2(CCl)CC(c3cc(F)cc(C#N)c3)=NO2)C1 (stereo not drawn) [Example I-58] | 90% | 80% | – | 80% | – | – | 80% | – | – | 80% | – | –
13 | CSCCOC(=O)C1C=CC(NC(=O)C2(C)CC(c3cc(C)cc(F)c3)=NO2)C1 (stereo not drawn) [Example I-59] | – | 80% | – | 80% | 80% | 90% | – | 80% | – | – | – | –
14 | CSCCOC(=O)C1C=CC(NC(=O)C2(CCl)CC(c3cc(F)cc(F)c3)=NO2)C1 (stereo not drawn) [Example I-60] | 80% | – | – | 80% | 80% | – | 80% | – | 80% | 80% | – | –
15 | COC1(C(=O)NC2C=CC(C(=O)OCCSC)C2)CC(c2cc(C)cc(F)c2)=NO1 (stereo not drawn) [Example I-62] | 90% | 90% | 90% | 80% | 90% | 80% | 80% | 80% | 90% | 80% | – | –
16 | CSCCOC(=O)C1C=CC(NC(=O)C2(CO)CC(c3cc(F)cc(F)c3)=NO2)C1 (stereo not drawn) [Example I-70] | 100% | – | 90% | 90% | – | – | 80% | 80% | – | 80% | – | –
17 | CSCCOC(=O)C1C=CC(NC(=O)C2(C)CC(c3cc(Cl)cc(C#N)c3)=NO2)C1 (stereo not drawn) [Example I-72] | 90% | 80% | 90% | 80% | 80% | 90% | 80% | – | 90% | 80% | – | –
18 | CSCCOC(=O)C1C=CC(NC(=O)C2(CF)CC(c3cc(F)cc(F)c3)=NO2)C1 (stereo not drawn) [Example I-74] | – | 80% | – | 90% | 80% | 90% | – | – | 90% | – | 90% | –
